Laboratory results reported in US7045316B2, “Transporter genes OATP-B,C,D, and E” (Chugai Seiyaku Kabushiki Kaisha, priority 1999, dated 2006).
Like-named read-outs stand apart in the source and are kept apart here. Blank lines part the entries; values can stand above or below the molecule they belong to.

Target: T1, OATP-C protein (Homo sapiens, UniProt Q9Y6L6)
T1 sequence (Q9Y6L6 1-691): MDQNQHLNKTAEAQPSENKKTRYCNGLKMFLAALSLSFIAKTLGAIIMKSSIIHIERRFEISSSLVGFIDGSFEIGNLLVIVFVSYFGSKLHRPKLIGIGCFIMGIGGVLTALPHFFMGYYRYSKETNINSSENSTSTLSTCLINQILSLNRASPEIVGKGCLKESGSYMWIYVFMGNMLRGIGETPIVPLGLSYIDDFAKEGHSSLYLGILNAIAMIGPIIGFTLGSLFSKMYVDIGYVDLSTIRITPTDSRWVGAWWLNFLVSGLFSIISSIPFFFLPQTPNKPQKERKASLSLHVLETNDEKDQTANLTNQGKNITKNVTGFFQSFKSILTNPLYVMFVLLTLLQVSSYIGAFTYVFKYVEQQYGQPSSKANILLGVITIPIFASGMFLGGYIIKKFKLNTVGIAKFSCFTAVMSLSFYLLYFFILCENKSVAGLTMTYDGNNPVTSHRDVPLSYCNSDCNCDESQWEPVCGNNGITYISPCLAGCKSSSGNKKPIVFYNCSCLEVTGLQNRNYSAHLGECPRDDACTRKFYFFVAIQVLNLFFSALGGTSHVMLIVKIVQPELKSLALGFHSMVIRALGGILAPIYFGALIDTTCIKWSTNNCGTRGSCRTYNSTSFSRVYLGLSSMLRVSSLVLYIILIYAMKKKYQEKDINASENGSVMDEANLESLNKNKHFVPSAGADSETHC
Assay: Transport experiment: uptake of labeled substrates into HEK293 cells transfected with OATP-C
Procedure: The human fetal kidney-derived cell strain, HEK 293 cells, were transfected with the plasmid pcDNA3/OATP-C or the pcDNA3 vector containing no insert as a control (mock) by the calcium phosphate method. Specifically, the plasmid DNA (10 μg), a Hepes buffer solution (137 mM NaCl 5 mM KCl, 0.7 mM Na2HPO4, 6 mM dextrose, and 21 mM Hepes pH 7.1) (1 ml), and 2 M CaCl2 (62.5 μl) were mixed and the resultant mixture was allowed to stand at room temperature for 30 min or more to form calcium phosphate coprecipitates. After the cells were plated on 10-cm diameter plates at a concentration of 1.5×10^6 cells per plate, and the cells were cultured for 24 h. The above-described calcium phosphate coprecipitates were added thereto, and the cells were further cultured for 24 h. Then, plates were washed with phosphate buffered saline (PBS), and after the addition of fresh culture medium, the cells were further cultured for 24 h.
Transport experiment was performed using the cells transfected with the plasmid DNA according to the following procedures. The cells were detached from the plates using a rubber policeman, suspended in a transport buffer (containing 125 mM NaCl, 4.8 mM KCl, 5.6 mM (+)-glucose, 1.2 mM CaCl2, 1.2 mM KH2PO4, 1.2 mM MgSO4, and 25 mM Hepes pH 7.4), and pre-incubated for 20 min. […] Incubated cells were overlaid on a silicon layer formed by laying a mixture of silicon oil and liquid paraffin (specific gravity=1.022) on a 3 M KCl layer, and separated by centrifugation. Radioactivity of cells was measured to determine the into-the-cell transport activity. In this case, 1×10^6 cells were used as one point of cells.
Herein, the culture of HEK 293 cells was performed using Dulbecco's MEM containing 10% FCS (fetal calf serum) as the culture medium in an atmosphere of 5% carbon dioxide at 37° C.

[1] = HEK293 cells expressing OATP-C vs mock, labeled substrate, 37° C. (FIG. 3)

Structure (SMILES): C[C@]12CC[C@@H]3c4ccc(O)cc4CC[C@H]3[C@@H]1CC[C@@H]2O[C@@H]1O[C@H](C(=O)O)[C@@H](O)[C@H](O)[C@H]1O [estradiol-17β-glucuronide]
- into-the-cell transport activity [1]: transport was obviously observed
- alteration of transport mediated by OATP-C protein (chloride ion substituted with gluconate (FIG. 6)): No alteration
- alteration of transport mediated by OATP-C protein (sodium ion replaced with N-methylglucamine (FIG. 6)): No alteration

Structure (SMILES): C[C@]12CC[C@@H]3c4ccc(OS(=O)(=O)O)cc4CC[C@H]3[C@@H]1CCC2=O [estron-3-sulfate]
- into-the-cell transport activity [1]: transport was obviously observed

- into-the-cell transport activity: weak transport activity
Structure (SMILES): CN(Cc1cnc2nc(N)nc(N)c2n1)c1ccc(C(=O)N[C@@H](CCC(=O)O)C(=O)O)cc1 [methotrexate]

Structure (SMILES): C[C@@H]1O[C@@H](O[C@H]2C[C@@H](O)[C@]3(CO)[C@H]4[C@H](O)C[C@]5(C)[C@@H](C6=CC(=O)OC6)CC[C@]5(O)[C@@H]4CC[C@]3(O)C2)[C@H](O)[C@H](O)[C@H]1O [ouabain]
- into-the-cell transport activity [1]: weak transport activity

Structure (SMILES): CCCCC[C@H](O)/C=C/[C@H]1[C@H](O)CC(=O)[C@@H]1C/C=C\CCCC(=O)O [prostaglandin E2]
- into-the-cell transport activity [1]: weak transport activity
